Each structure is given as a SMILES string.

Assay [1] deals with Human immunodeficiency virus 1. Kind of assay: Antiviral activity against HIV1 NL4-3 infected in human MT4 cells assessed as reduction in p24 Gag protein production incubated for 6 days and measured on day 7 by chemiluminescent enzyme immunoassay. It counts as functional, organism-based. The following applies: Human immunodeficiency virus 1, NL4-3, MT4.
The next assay addresses Protease (Human immunodeficiency virus 1, UniProt Q9YQ12). Kind of assay: Inhibition of HIV1 protease using Ac-Thr-Ile-Nle-Nle-Gln-Arg-NH2 substrate by continuous fluorometric assay.

Sequence of Protease (Q9YQ12 whole entry): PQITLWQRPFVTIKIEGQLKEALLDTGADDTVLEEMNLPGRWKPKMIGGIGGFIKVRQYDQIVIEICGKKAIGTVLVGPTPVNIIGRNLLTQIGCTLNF

Broadly, the IC50 is the midpoint of a concentration-inhibition curve. Broadly, the Ki is the dissociation constant of the complex between target and ligand, obtained from inhibition or displacement. Low readings indicate tighter binding, high ones weaker binding. As to `CCOc1c(N[C@@H](Cc2ccccc2)[C@H](O)CN(CC(C)C)S(=O)(=O)c2ccc(OC)cc2)c(=O)c1=O`, in assay [1], the half-inhibitory concentration (IC50) was > 1000 nM. At Protease, the Ki is 463 nM.

In the case of `COc1ccc(S(=O)(=O)N(CC(C)C)C[C@@H](O)[C@H](Cc2ccccc2)Nc2c(O[C@@H]3CCOC3)c(=O)c2=O)cc1`, the IC50 in assay [1] is > 1000 nM. The same molecule returned a Ki at Protease of 226 nM.

`COc1ccc(S(=O)(=O)N(CC(C)C)C[C@@H](O)[C@H](Cc2ccccc2)Nc2c(N(C)[C@@H]3CCOC3)c(=O)c2=O)cc1`: in assay [1], the IC50 is > 1000 nM. In addition, at Protease, the inhibitory constant (Ki) is 0.51 nM.

As to `COc1ccc(S(=O)(=O)N(CC(C)C)C[C@@H](O)[C@H](Cc2ccccc2)Nc2c(O[C@H]3CCOC3)c(=O)c2=O)cc1`, the IC50 in assay [1] was > 1000 nM. Moreover, affinity on Protease was put at a Ki of 31.1 nM.

Turning to `COc1ccc(S(=O)(=O)N(CC(C)C)C[C@@H](O)[C@H](Cc2ccccc2)Nc2c(N(C)[C@H]3CO[C@H]4OCC[C@H]43)c(=O)c2=O)cc1`, the 50% inhibitory concentration (IC50) in assay [1] is > 1000 nM. Besides, the affinity at Protease corresponds to a Ki of 4.5 nM.

For `COc1ccc(S(=O)(=O)N(CC(C)C)C[C@@H](O)[C@H](Cc2ccccc2)Nc2c(N[C@H]3CCOC3)c(=O)c2=O)cc1`, the IC50 in assay [1] is > 1000 nM. In addition, at Protease, the affinity corresponds to a Ki of 6100 nM.

Consider `COc1ccc(S(=O)(=O)N(CC(C)C)C[C@@H](O)[C@H](Cc2ccccc2)Nc2c(N[C@@H]3CO[C@@H]4OCC[C@@H]43)c(=O)c2=O)cc1`, for which the IC50 in assay [1] is > 1000 nM. This molecule returned a Ki at Protease of 5.6 nM.

On to `COc1ccc(S(=O)(=O)N(CC(C)C)C[C@@H](O)[C@H](Cc2ccccc2)Nc2c(N[C@H]3CO[C@H]4OCC[C@H]43)c(=O)c2=O)cc1`, for which the IC50 in assay [1] was > 1000 nM. The inhibition constant (Ki) on Protease was determined as 54.8 nM.

As to `COc1ccc(S(=O)(=O)N(CC(C)C)C[C@@H](O)[C@H](Cc2ccccc2)Nc2c(N[C@@H]3CCOC3)c(=O)c2=O)cc1`, the half-maximal inhibitory concentration (IC50) in assay [1] is > 1000 nM. Further, at Protease, the Ki turned out to be 200 nM.

On to `COCCOc1c(N[C@@H](Cc2ccccc2)[C@H](O)CN(CC(C)C)S(=O)(=O)c2ccc(OC)cc2)c(=O)c1=O`, for which, in assay [1], the concentration for half-maximal inhibition (IC50) is > 1000 nM. On Protease, this molecule showed a Ki of 1960 nM.

In the case of `COc1ccc(S(=O)(=O)N(CC(C)C)C[C@@H](O)[C@H](Cc2ccccc2)Nc2c(N(C)[C@H]3CCOC3)c(=O)c2=O)cc1`, the IC50 in assay [1] was > 1000 nM. At Protease, this molecule gave a Ki of 397 nM.

With `COc1ccc(S(=O)(=O)N(CC(C)C)C[C@@H](O)[C@H](Cc2ccccc2)Nc2c(N(C)[C@@H]3CO[C@@H]4OCC[C@@H]43)c(=O)c2=O)cc1`, the IC50 in assay [1] was > 1000 nM. At Protease, this molecule returned an inhibition constant Ki of 201 nM.

Source of the values: ChEMBL document CHEMBL4385670, “Potent HIV-1 protease inhibitors incorporating squaramide-derived P2 ligands: Design, synthesis, and biological evaluation” (Bioorg Med Chem Lett, 2019).
